PMC12865225 (Clinical and Translational Science, 2026)

Experiments:
OAT3 = molecular target: T1, OAT3 (Homo sapiens, UniProt Q8TCC7); assay: Uptake transport assay in OAT3-expressing HEK293 cells; conditions: for transport by OAT3: 2 and 50 μM, 10 min; for Vmax (pmol/106 cells/min) OAT3: uptake, 2 min
T1 sequence (Q8TCC7 1-542): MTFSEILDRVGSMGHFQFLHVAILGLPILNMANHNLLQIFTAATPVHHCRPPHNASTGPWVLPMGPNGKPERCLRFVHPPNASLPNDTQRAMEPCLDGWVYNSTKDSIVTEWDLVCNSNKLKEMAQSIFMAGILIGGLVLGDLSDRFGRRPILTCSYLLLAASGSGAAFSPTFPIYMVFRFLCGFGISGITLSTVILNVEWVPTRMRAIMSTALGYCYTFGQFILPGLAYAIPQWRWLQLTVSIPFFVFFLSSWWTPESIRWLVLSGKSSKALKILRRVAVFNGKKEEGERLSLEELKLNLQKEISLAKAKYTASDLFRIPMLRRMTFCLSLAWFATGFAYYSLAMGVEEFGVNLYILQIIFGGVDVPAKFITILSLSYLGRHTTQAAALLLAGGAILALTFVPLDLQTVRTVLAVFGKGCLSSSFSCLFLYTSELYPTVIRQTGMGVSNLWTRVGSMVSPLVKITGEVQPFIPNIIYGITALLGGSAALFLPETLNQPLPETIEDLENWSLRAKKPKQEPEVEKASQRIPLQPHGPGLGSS
Protocol: (§1) The human transporters OATP1B1, OATP1B3, OATP2B1, and OAT1‐OAT4 and a negative control protein (enhanced yellow fluorescent protein, eYFP) were transiently expressed in human embryonic kidney 293 (HEK293) cells by recombinant baculovirus‐mediated transduction. Baculoviruses carrying human genes for the transporters were prepared as reported previously. HEK293 cells were cultured in DMEM containing 10% fetal bovine serum at 37°C and 5% CO2 and passaged two to three times per week. For the transport studies, 0.05 × 10^6 cells for 48‐well plates (OATPs) or 0.06 × 10^6 cells for 24‐well plates (OATs) were seeded onto cell‐culture treated well plates coated with poly‐D‐lysine. After 1 day, cells were transduced to produce recombinant proteins by changing media to DMEM containing 30 μL (48‐well plates) or 60 μL (24‐well plates) of recombinant baculovirus and 3 mM (OATs) or 5 mM (OATPs) sodium butyrate in a total media volume of 500 μL. The cells were cultured for a further 2 days before the transport assays.
(§2) For the transport studies, media were removed and cells were washed once with warm transport uptake buffer (TP‐buffer—pH 7.4 HBSS with 25 mM HEPES and 4 mM sodium bicarbonate). Each experiment included triplicate (OATP) or duplicate (OAT) samples for every test condition. The uptake was started by removing liquid from wells and applying warm TP‐buffer (200 μL for 24‐well plates or 125 μL for 48‐well plates) containing a test compound to cells. Transport assays were terminated after a pre‐specified incubation time (reported in figure legends) by removing substrate solution and washing cells three times with cold TP‐buffer (300 μL for 48‐well plates and 400 μL for 24‐well plates). For the liquid chromatography mass spectrometry (LC–MS) analysis, compounds were extracted from cells with 125 μL (48‐well plates) or 250 μL (24‐well plates) of an ultrapure‐water solution containing 75% methanol and 0.1% formic acid, shaking at 250 RPM for 30 min. […] Samples were transferred to well plates, centrifuged at 3000 g for 30 min, and transferred to a new well plate for the analysis.
(§3) Equation (2) (the Michaelis–Menten equation) was fit to the transport kinetic assay data. […] (2) Uptake=Vmax×S/Km+S

OAT4 = molecular target: T2, OAT4 (Homo sapiens, UniProt Q9NSA0); assay: Uptake transport assay in OAT4-expressing HEK293 cells; format: cell-based; conditions: for transport by OAT4: 2 and 50 μM, 10 min; for Vmax (pmol/106 cells/min) OAT4: uptake, 2 min
T2 construct: expressed in transfected cells; host or cells: HEK293 (recombinant baculovirus-mediated transduction)
T2 sequence (Q9NSA0 1-550): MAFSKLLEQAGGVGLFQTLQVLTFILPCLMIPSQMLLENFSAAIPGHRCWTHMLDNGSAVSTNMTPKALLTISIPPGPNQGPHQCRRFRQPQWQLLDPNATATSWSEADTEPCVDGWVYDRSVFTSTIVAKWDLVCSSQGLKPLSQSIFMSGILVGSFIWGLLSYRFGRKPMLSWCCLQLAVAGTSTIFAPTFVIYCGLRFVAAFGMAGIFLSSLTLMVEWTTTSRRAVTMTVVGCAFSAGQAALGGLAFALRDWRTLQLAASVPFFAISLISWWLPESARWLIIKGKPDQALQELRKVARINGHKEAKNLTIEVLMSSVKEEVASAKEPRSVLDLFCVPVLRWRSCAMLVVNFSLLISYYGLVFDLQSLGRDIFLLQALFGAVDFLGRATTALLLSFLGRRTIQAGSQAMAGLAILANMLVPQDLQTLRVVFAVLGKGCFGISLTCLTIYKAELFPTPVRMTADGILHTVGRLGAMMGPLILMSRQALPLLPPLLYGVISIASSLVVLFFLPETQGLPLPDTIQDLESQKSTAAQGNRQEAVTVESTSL
Protocol: as §1, §2, §3

MRP3 = system: T3, MRP3; assay: Efflux transport assay in MRP3 HEK293 membrane vesicles; format: biochemical, human; conditions: 5 and 50 µM, 10 min
T3 construct: expressed in transfected cells; host or cells: HEK293 cells

OAT2 = system: T4, OAT2; assay: OAT2 inhibition, methotrexate uptake into HEK293 cells; format: cell-based, human; conditions: 200 μM inhibitor, 34 nM methotrexate
T4 construct: expressed in transfected cells; host or cells: HEK293 (recombinant baculovirus-mediated transduction)
Protocol: as §1, with “After 1 day, cells were transduced to produce recombinant proteins by changing media to DMEM containing 30 μL (48‐well plates) or 60 μL (24‐well plates) of recombinant baculovirus and 3 mM (OATs) or 5 mM (OATPs) sodium butyrate in a total media volume of 500 μL. The cells were cultured for a further 2 days before the transport assays.” left out
In the OATP inhibition assays, inhibitors in warm TP‐buffer were directly applied to cells after media removal, followed by a 30‐min preincubation step in the presence of inhibitors. […] OAT1 and OAT3 cells were lysed with 200 μL of 1 M sodium hydroxide for 10 min, and 150 μL of these samples were transferred to a black well plate for fluorescein quantification. […]
For the inhibition data analysis, the average of measured concentrations in the control cells was subtracted from the average of measured concentrations in transporter‐expressing cells for each inhibitor concentration and then normalized to the vehicle sample that represents 100% transport activity. […]

Row | transport by OAT3 (OAT3) | Vmax (pmol/106 cells/min) OAT3 (OAT3) [pmol/106 cells/min] | transport by OAT4 (OAT4) | Vmax (pmol/106 cells/min) OAT4 (OAT4) [pmol/106 cells/min] | transport by MRP3 (MRP3) | SMILES | inhibition of OAT2-mediated transport of methotrexate (OAT2)
1 | transported | 296 | transported | 239 | did not transport | Cc1onc(-c2c(Cl)cccc2Cl)c1C(=O)N[C@@H]1C(=O)N2[C@@H]1SC(C)(C)[C@@H]2C(=O)O [Dicloxacillin] | neither compound substantially inhibited
2 | transported | 277 | transported | 245 | did not transport | Cc1onc(-c2c(F)cccc2Cl)c1C(=O)N[C@@H]1C(=O)N2[C@@H]1SC(C)(C)[C@@H]2C(=O)O [Flucloxacillin] | neither compound substantially inhibited
